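Growth conditions: 96-well plates. Treatment: test compound, 48 hours, 5 concentrations. Analysis: linear interpolation between bracketing concentrations; unreached endpoints set to highest concentration. The concentration for 50% growth inhibition is given as GI50. TGI marks complete inhibition of growth.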
Legend:
Experiment in all cases: NCI-60 cell line screen, 48 h; in the data active means GI50 below about 0.43 µM; inactive means the rest
SF-295 CNS = test system: SF-295 CNS
RPMI-8226 leukemia = test system: RPMI-8226 leukemia
SNB-19 CNS = test system: SNB-19 CNS
NCI-H460 lung = test system: NCI-H460 lung
U251 CNS = test system: U251 CNS
SW-620 colon = test system: SW-620 colon
786-0 renal = test system: 786-0 renal
SF-539 CNS = test system: SF-539 CNS
SK-OV-3 ovarian = test system: SK-OV-3 ovarian
MOLT-4 leukemia = test system: MOLT-4 leukemia
M14 melanoma = test system: M14 melanoma
NCI-H522 lung = test system: NCI-H522 lung
IGROV1 ovarian = test system: IGROV1 ovarian
EKVX NSCLC = test system: EKVX NSCLC
SNB-75 CNS = test system: SNB-75 CNS
K-562 leukemia = test system: K-562 leukemia
HCT-116 colon = test system: HCT-116 colon
HT29 colon = test system: HT29 colon
HOP-62 NSCLC = test system: HOP-62 NSCLC
A549 NSCLC = test system: A549 NSCLC
ACHN renal = test system: ACHN renal
SN12C renal = test system: SN12C renal
SK-MEL-5 melanoma = test system: SK-MEL-5 melanoma
A498 renal = test system: A498 renal
HCT-15 colon = test system: HCT-15 colon
HL-60(TB) leukemia = test system: HL-60(TB) leukemia
KM20L2 colon = test system: KM20L2 colon
SF-268 CNS = test system: SF-268 CNS
OVCAR-3 ovarian = test system: OVCAR-3 ovarian
LOX IMVI melanoma = test system: LOX IMVI melanoma
M19-MEL melanoma = test system: M19-MEL melanoma
CAKI-1 renal = test system: CAKI-1 renal
NCI-H226 lung = test system: NCI-H226 lung
SK-MEL-2 melanoma = test system: SK-MEL-2 melanoma
OVCAR-5 ovarian = test system: OVCAR-5 ovarian
UO-31 renal = test system: UO-31 renal
UACC-62 melanoma = test system: UACC-62 melanoma
HCC-2998 colon = test system: HCC-2998 colon
SK-MEL-28 melanoma = test system: SK-MEL-28 melanoma
UACC-257 melanoma = test system: UACC-257 melanoma
OVCAR-4 ovarian = test system: OVCAR-4 ovarian
LXFL 529 NSCLC = test system: LXFL 529 NSCLC
OVCAR-8 ovarian = test system: OVCAR-8 ovarian
MALME-3M melanoma = test system: MALME-3M melanoma
KM12 colon = test system: KM12 colon
CCRF-CEM leukemia = test system: CCRF-CEM leukemia
HOP-92 NSCLC = test system: HOP-92 NSCLC
DMS 114 small cell lung = test system: DMS 114 small cell lung
RXF 393 renal = test system: RXF 393 renal
DMS 273 small cell lung = test system: DMS 273 small cell lung
SR leukemia = test system: SR leukemia
SNB-78 CNS = test system: SNB-78 CNS
COLO 205 colon = test system: COLO 205 colon
TK-10 renal = test system: TK-10 renal
NCI-H23 lung = test system: NCI-H23 lung
DLD-1 colon = test system: DLD-1 colon
XF 498 CNS = test system: XF 498 CNS
MDA-MB-231 breast = test system: MDA-MB-231 breast
T-47D breast = test system: T-47D breast
DU-145 prostate = test system: DU-145 prostate
MCF7 breast = test system: MCF7 breast
BT-549 breast = test system: BT-549 breast
PC-3 prostate = test system: PC-3 prostate
NCI/ADR-RES ovarian = test system: NCI/ADR-RES ovarian
HS 578T breast = test system: HS 578T breast
MDA-MB-435 = test system: MDA-MB-435

CC(=O)[CH-]C(=O)c1ccccc1.CC(=O)[CH-]C(=O)c1ccccc1.[O-]Cc1cccs1.[O-]Cc1cccs1.[Ti+4]
inactive: GI50 (SF-295 CNS) 10.6 µM | GI50 (RPMI-8226 leukemia) 27.1 µM | GI50 (SNB-19 CNS) > 100 µM | GI50 (NCI-H460 lung) 29.4 µM | GI50 (U251 CNS) > 100 µM | GI50 (SW-620 colon) 49.9 µM | GI50 (786-0 renal) > 100 µM | GI50 (SF-539 CNS) 71.2 µM | GI50 (SK-OV-3 ovarian) > 100 µM | GI50 (MOLT-4 leukemia) > 100 µM | GI50 (M14 melanoma) 21.6 µM | GI50 (NCI-H522 lung) 54.2 µM | GI50 (IGROV1 ovarian) 89.9 µM | GI50 (EKVX NSCLC) 37.4 µM | GI50 (SNB-75 CNS) 73.1 µM | GI50 (K-562 leukemia) 31.2 µM | GI50 (HCT-116 colon) 33 µM | GI50 (HT29 colon) 17.5 µM | GI50 (HOP-62 NSCLC) > 100 µM | GI50 (A549 NSCLC) 97.9 µM | GI50 (ACHN renal) > 100 µM | GI50 (SN12C renal) 36.8 µM | GI50 (SK-MEL-5 melanoma) > 100 µM | GI50 (A498 renal) > 100 µM | GI50 (HCT-15 colon) 20 µM | GI50 (HL-60(TB) leukemia) 4.26 µM | GI50 (KM20L2 colon) 19.8 µM | GI50 (SF-268 CNS) > 100 µM | GI50 (OVCAR-3 ovarian) > 100 µM | GI50 (LOX IMVI melanoma) 18.1 µM | GI50 (M19-MEL melanoma) 82 µM | GI50 (CAKI-1 renal) 71.6 µM | GI50 (NCI-H226 lung) 82.3 µM | GI50 (SK-MEL-2 melanoma) > 100 µM | GI50 (OVCAR-5 ovarian) 38.2 µM | GI50 (UO-31 renal) > 100 µM | GI50 (UACC-62 melanoma) 18 µM | GI50 (HCC-2998 colon) > 100 µM | GI50 (SK-MEL-28 melanoma) 43.8 µM | GI50 (UACC-257 melanoma) > 100 µM | GI50 (OVCAR-4 ovarian) > 100 µM | GI50 (LXFL 529 NSCLC) 25.3 µM | GI50 (OVCAR-8 ovarian) > 100 µM | GI50 (MALME-3M melanoma) > 100 µM | GI50 (KM12 colon) 47.9 µM
46.2 µM: TGI (HCT-15 colon)
71.3 µM: TGI (RPMI-8226 leukemia)
71.9 µM: TGI (SF-295 CNS)
58 µM: TGI (LOX IMVI melanoma)
46.6 µM: TGI (HT29 colon)
> 100 µM: TGI (SNB-19 CNS) | TGI (NCI-H460 lung) | TGI (U251 CNS) | TGI (SW-620 colon) | TGI (786-0 renal) | TGI (SF-539 CNS) | TGI (SK-OV-3 ovarian) | TGI (MOLT-4 leukemia) | TGI (M14 melanoma) | TGI (NCI-H522 lung) | TGI (IGROV1 ovarian) | TGI (EKVX NSCLC) | TGI (SNB-75 CNS) | TGI (K-562 leukemia) | TGI (HCT-116 colon) | TGI (HOP-62 NSCLC) | TGI (A549 NSCLC) | TGI (ACHN renal) | TGI (SN12C renal) | TGI (SK-MEL-5 melanoma) | TGI (A498 renal) | TGI (HL-60(TB) leukemia) | TGI (KM20L2 colon) | TGI (SF-268 CNS) | TGI (OVCAR-3 ovarian) | TGI (M19-MEL melanoma) | TGI (CAKI-1 renal) | TGI (NCI-H226 lung) | TGI (SK-MEL-2 melanoma) | TGI (OVCAR-5 ovarian) | TGI (UO-31 renal) | TGI (UACC-62 melanoma) | TGI (HCC-2998 colon) | TGI (SK-MEL-28 melanoma) | TGI (UACC-257 melanoma) | TGI (OVCAR-4 ovarian) | TGI (LXFL 529 NSCLC) | TGI (OVCAR-8 ovarian) | TGI (MALME-3M melanoma) | TGI (KM12 colon)

Cc1cc(N(CCC#N)CCC#N)ccc1N=Nc1ccc([N+](=O)[O-])cc1
80.6 µM: TGI (LOX IMVI melanoma)
57.3 µM: TGI (SNB-19 CNS)
> 10 µM: TGI (SW-620 colon) | TGI (SK-OV-3 ovarian) | TGI (SNB-75 CNS) | TGI (SK-MEL-5 melanoma) | TGI (UACC-62 melanoma)
31.6 µM: TGI (HCT-116 colon)
44.4 µM: TGI (DMS 273 small cell lung)
36.1 µM: TGI (U251 CNS)
33 µM: TGI (DMS 114 small cell lung)
56.9 µM: TGI (OVCAR-8 ovarian)
> 100 µM: TGI (SF-295 CNS) | TGI (CCRF-CEM leukemia) | TGI (RPMI-8226 leukemia) | TGI (NCI-H460 lung) | TGI (HOP-92 NSCLC) | TGI (RXF 393 renal) | TGI (786-0 renal) | TGI (SF-539 CNS) | TGI (MOLT-4 leukemia) | TGI (M14 melanoma) | TGI (NCI-H522 lung) | TGI (EKVX NSCLC) | TGI (SR leukemia) | TGI (K-562 leukemia) | TGI (SNB-78 CNS) | TGI (HT29 colon) | TGI (HOP-62 NSCLC) | TGI (A549 NSCLC) | TGI (ACHN renal) | TGI (SN12C renal) | TGI (A498 renal) | TGI (HCT-15 colon) | TGI (HL-60(TB) leukemia) | TGI (COLO 205 colon) | TGI (KM20L2 colon) | TGI (SF-268 CNS) | TGI (OVCAR-3 ovarian) | TGI (M19-MEL melanoma) | TGI (CAKI-1 renal) | TGI (NCI-H226 lung) | TGI (SK-MEL-2 melanoma) | TGI (OVCAR-5 ovarian) | TGI (UO-31 renal) | TGI (HCC-2998 colon) | TGI (SK-MEL-28 melanoma) | TGI (UACC-257 melanoma) | TGI (NCI-H23 lung) | TGI (MALME-3M melanoma) | TGI (KM12 colon)
83.2 µM: TGI (TK-10 renal)
44.1 µM: TGI (OVCAR-4 ovarian)

S=c1nc(/C=C/c2ccc(Cl)c(Cl)c2)[nH][nH]1
> 100 µM: TGI (SF-295 CNS) | TGI (CCRF-CEM leukemia) | TGI (RPMI-8226 leukemia) | TGI (SNB-19 CNS) | TGI (NCI-H460 lung) | TGI (U251 CNS) | TGI (SW-620 colon) | TGI (RXF 393 renal) | TGI (786-0 renal) | TGI (SF-539 CNS) | TGI (SK-OV-3 ovarian) | TGI (MOLT-4 leukemia) | TGI (M14 melanoma) | TGI (NCI-H522 lung) | TGI (IGROV1 ovarian) | TGI (DLD-1 colon) | TGI (DMS 273 small cell lung) | TGI (EKVX NSCLC) | TGI (SR leukemia) | TGI (SNB-75 CNS) | TGI (K-562 leukemia) | TGI (HCT-116 colon) | TGI (MDA-MB-231 breast) | TGI (HT29 colon) | TGI (HOP-62 NSCLC) | TGI (A549 NSCLC) | TGI (ACHN renal) | TGI (SN12C renal) | TGI (T-47D breast) | TGI (SK-MEL-5 melanoma) | TGI (A498 renal) | TGI (HCT-15 colon) | TGI (HL-60(TB) leukemia) | TGI (KM20L2 colon) | TGI (TK-10 renal) | TGI (SF-268 CNS) | TGI (OVCAR-3 ovarian) | TGI (LOX IMVI melanoma) | TGI (DU-145 prostate) | TGI (CAKI-1 renal) | TGI (NCI-H226 lung) | TGI (MCF7 breast) | TGI (SK-MEL-2 melanoma) | TGI (OVCAR-5 ovarian) | TGI (UO-31 renal) | TGI (UACC-62 melanoma) | TGI (BT-549 breast) | TGI (HCC-2998 colon) | TGI (SK-MEL-28 melanoma) | TGI (UACC-257 melanoma) | TGI (PC-3 prostate) | TGI (NCI-H23 lung) | TGI (OVCAR-4 ovarian) | TGI (NCI/ADR-RES ovarian) | TGI (OVCAR-8 ovarian) | TGI (MALME-3M melanoma) | TGI (HS 578T breast) | TGI (MDA-MB-435) | TGI (KM12 colon)
64.6 µM: TGI (HOP-92 NSCLC)
0.12 µM: TGI (DMS 114 small cell lung)
inactive: GI50 (RPMI-8226 leukemia) 51.4 µM | GI50 (HOP-92 NSCLC) 0.802 µM | GI50 (M14 melanoma) 94.7 µM | GI50 (SR leukemia) 22.7 µM | GI50 (SNB-75 CNS) > 100 µM | GI50 (MDA-MB-231 breast) 79 µM | GI50 (T-47D breast) 77.1 µM | GI50 (DU-145 prostate) > 100 µM | GI50 (CAKI-1 renal) 70 µM | GI50 (MCF7 breast) > 100 µM | GI50 (BT-549 breast) 31.3 µM | GI50 (PC-3 prostate) 53.4 µM | GI50 (OVCAR-4 ovarian) 65.5 µM | GI50 (NCI/ADR-RES ovarian) > 100 µM | GI50 (HS 578T breast) > 100 µM | GI50 (MDA-MB-435) 86.7 µM
95.5 µM: TGI (XF 498 CNS)

From PubChem BioAssay (NCI)
